Measurements published in patent publication US20020051828A1, “Mixtures which can be isolated from eugenia jambolana lamarck seeds, their preparation and the use of these mixtures and some of their constituents as medicaments” (priority 1996, published 2002).

Tests used:
[1] = test system: normal mice with post-prandial hyperglycaemia; test: glycaemia of normal mice with post-prandial hyperglycaemia; assay type: in vivo, Swiss albino mice; conditions: 0.5 mg/mouse by gastric intubation; for GLYCAEMIA AT T0: T0, before administration; for GLYCAEMIA AT T60: T60, one hour after administration; for % inhibition: glycaemia T60 versus T0
Description: (§1) The hypoglycaemic activity of the mixtures I and II, of sodium oxamate and of the compounds of formula (I) have been determined in mice made diabetic with streptozocin and in normal mice with post-prandial hyperglycaemia according to the following procedures:
II—Normal Mice with Post-prandial Hyperglycaemia
Swiss albino mice weighing between 22 and 25 g are made to have post-prandial hyperglycaemia by the following procedure:
food in excess for 1 hour
The glycaemia is measured at the end of the last two hours of fasting, which constitutes the glycaemia at time T0. The mice are then divided into homogeneous batches according to the measured glycaemias. The products to be evaluated are administered without delay by gastric intubation in 0.4 ml of distilled water. The control batch receives the excipient (0.4 ml of distilled water). After one hour, the final glycaemias are measured which constitute the glycaemia at time T60.

[2] = test system: mice made diabetic with streptozotocin; test: glycaemia of mice made diabetic with streptozotocin; assay type: in vivo, Swiss albino mice; conditions: for GLYCAEMIA AT D5 / % change in glycaemia: 0.5 mg/mouse/day by gastric intubation for 4 days; for GLYCAEMIA AT D5: D5, after 4 h fasting; for % change in glycaemia: glycaemia D5 versus D1; for GLYCAEMIA AT D1: 0.5 mg/mouse/day by gastric intubation, D1, start of treatment, after 4 h fasting
Description: as §1
I—Mice Made Diabetic with Streptozotocin
Swiss albino mice weighing between 22 and 25 g are made diabetic with streptozotocin administered by intraperitoneal injection at a dose of 210 or 265 mg/Kg of mouse, diluted in a citrate buffer at a concentration such that each mouse receives 0.2 ml of the solution on day 1 (D1). 3 to 4 days later, a check is made on 2 to 3 mice to see if the diabetes is established (glycaemia greater than 7.2 mmol/liter (130 mg per 100 ml). The glycaemia is then measured after starving for 4 hours. If the mice have become diabetic, they are divided into batches of 5 to 7 mice. Each of the batches receives, from D1 and daily, a selected dose of product. The administration is made once a day and at a fixed time, by gastric intubation and in a volume of 0.4 ml of distilled water as vehicle. Two batches of controls are made up:
one batch of untreated diabetic mice
These two batches of controls receive 0.4 ml of vehicle by gastric intubation and simultaneously with the treated mice.
The treatment lasts for 4 days. On the 5th day (D5), there is no administration of product. After fasting for 4 hours, the final glycaemias are measured.

[3] = oral toxicity (LD50) in mice; conditions: mouse, in vivo, orally in mice
Description: The mixtures according to the invention, the sodium oxamate and the compounds of formula (I) have a low toxicity. Their LD50 is greater than 2000 mg/kg orally in mice.

| Structure (SMILES) | GLYCAEMIA AT T0 [1] | GLYCAEMIA AT T60 [1] | % inhibition [1] | GLYCAEMIA AT D5 [2] | % change in glycaemia [2] | GLYCAEMIA AT D1 [2] | LD50 [3] |
| --- | --- | --- | --- | --- | --- | --- | --- |
| OCC(O)C(O)C(O)c1cnc(C(O)C(O)C(O)CO)cn1 (stereo not shown) [2,5-di(tetrahydroxybutyl)pyrazine, 2,5-di-(tetrahydroxybutyl)pyrazine] | 136.25 mg/100 ml | 102.41 mg/100 ml | −24.83% |  |  |  |  |
| NC(=O)C(=O)[O-].[Na+] [Sodium oxamate, sodium oxamate] | 136.46 mg/100 ml | 102.93 mg/100 ml | −24.57% | 89.90 mg/100 ml | −41.46% | 153.40 mg/100 ml | > 2000 mg/kg |
| OCC(O)C(O)Cc1cnc(C(O)C(O)C(O)CO)cn1 (stereo not shown) [2-(tetrahydroxybutyl)-5-(2′,3′,4′-trihydroxybutyl)pyrazine] | 128.75 mg/100 ml | 90.50 mg/100 ml | −29.70% | 164.50 mg/100 ml | −45.93% | 304.25 mg/100 ml |  |
